According to the Deep4Chem optical property database:

Assay: solvent given as SMILES
[1] = in O=P(c1ccccc1)(c1ccccc1)c1ccccc1Oc1ccccc1P(=O)(c1ccccc1)c1ccccc1

## Cc1ccc(NC(=O)c2sc(Br)nc2C)cc1
In C1CCOC1
  emission maximum: 407.5 nm
In CC#N
  emission maximum: 399.5 nm
In CCCCCC
  emission maximum: 399 nm
In CCOC(C)=O
  emission maximum: 404.5 nm
In CN(C)C=O
  emission maximum: 451 nm
In CO
  emission maximum: 403 nm
In CS(C)=O
  emission maximum: 401.5 nm
In ClC(Cl)Cl
  emission maximum: 412.4 nm

## N#Cc1ccc2cc[nH]c2c1
In C1CCOC1
  emission maximum: 345 nm
In C1COCCO1
  emission maximum: 342 nm
In CC#N
  emission maximum: 354 nm
In CC(C)O
  emission maximum: 356 nm
In CCO
  emission maximum: 358 nm
In CO
  emission maximum: 367 nm
In CS(C)=O
  emission maximum: 363 nm
In O
  emission maximum: 375 nm
In OCC(F)(F)F
  emission maximum: 364 nm

## CC(C)(C)c1ccc(-c2c(-c3ccc(N(c4ccccc4)c4ccccc4)cc3)cc(-c3ccc(N(c4ccccc4)c4ccccc4)cc3)c(-c3ccc(C(C)(C)C)cc3)c2-c2ccc(C(C)(C)C)cc2)cc1
In C1CCOC1
  emission maximum: 406 nm

## CCCCn1c2ccc(-c3cccs3)cc2c2c1c1c3ccc(-c4cccs4)cc3n(CCCC)c1c1c3ccc(-c4cccs4)cc3n(CCCC)c21
In C1CCOC1
  emission maximum: 424 nm

## C#Cc1ccc2ccc3cccc4ccc1c2c34
In C1CCCCC1
  emission maximum: 383 nm
In CC#N
  emission maximum: 384 nm
In CO
  emission maximum: 383 nm
In ClCCl
  emission maximum: 384 nm

## CC(C)c1cccc(C(C)C)c1-n1c(=O)c2cc3nc(-c4ccccc4)c4cc5c(=O)n(-c6c(C(C)C)cccc6C(C)C)c(=O)c6cc7c(-c8ccccc8)nc8cc(c1=O)c2c1c3c4c(c56)c7c81
In ClC(Cl)Cl
  emission maximum: 488 nm

## Cc1cc(-c2nc(-c3ccccc3)nc(-c3ccccc3)n2)c(C)cc1-c1ccc2c(c1)C1(c3ccccc3-c3ccccc31)c1ccccc1N2c1ccccc1
In c1cc(-c2cccc(-n3c4ccccc4c4ccccc43)c2)cc(-n2c3ccccc3c3ccccc32)c1
  emission maximum: 446 nm

## Cc1ccc([N+]2=c3c4n(c5ccccc35)[B-](F)(F)[N+](c3ccc(C)cc3)=c3c=4n(c4ccccc34)[B-]2(F)F)cc1
In ClCCl
  emission maximum: 808 nm

## O=C1/C(=C2\Sc3ccccc3C2=O)Sc2ccccc21
In C1COCCO1
  emission maximum: 590 nm
In CN(C)C=O
  emission maximum: 607 nm
In CO
  emission maximum: 624 nm
In CS(C)=O
  emission maximum: 614 nm
In c1ccccc1
  emission maximum: 598 nm

## c1csc(-c2ccc(-c3ccc(-c4cccs4)s3)s2)c1
In CCCCCCCCCCCCCC
  emission maximum: 474 nm
In ClCCl
  emission maximum: 480 nm

## C(=N\c1ccc(-c2cn3nc(-c4cccs4)sc3n2)cc1)/c1ccc(N(c2ccccc2)c2ccccc2)cc1
In ClC(Cl)Cl
  emission maximum: 552 nm

## Cc1cc(-n2c3ccccc3c3cc4c(cc32)C2c3ccccc3C4c3ccccc32)c(C)cc1-c1nc(-c2ccccc2)nc(-c2ccccc2)n1
In Cc1ccccc1
  emission maximum: 427 nm
[1]
  emission maximum: 442 nm

## c1ccc(C2=C3C4=C(C5=[N+]3[B-]3(Oc6ccccc65)Oc5ccccc5-c5c6c(c2n53)C2CCC6CC2)C2CCC4CC2)cc1 (stereo not given)
In ClCCl
  emission maximum: 645 nm

## C1=Nc2cccc3cccc(c23)N1
In CC#N
  emission maximum: 476 nm
In CO
  emission maximum: 485 nm
In CS(C)=O
  emission maximum: 482 nm
In Cc1ccccc1
  emission maximum: 472 nm

## F[B-]1(F)n2c(c3ccccc3c2-c2ccccc2)C(c2ccccc2)=C2c3ccccc3C(c3ccccc3)=[N+]21
In ClCCl
  emission maximum: 664 nm

## COC(=O)c1ccc(C2=C3C=c4sc(-c5cccs5)cc4=[N+]3[B-](F)(F)n3c2cc2sc(-c4cccs4)cc23)cc1
In ClCCl
  emission maximum: 716 nm

## COc1ccc(N(c2ccc(OC)cc2)c2ccc3ccc4c(B(c5c(C)cc(C)cc5C)c5c(C)cc(C)cc5C)ccc5ccc2c3c54)cc1
In C1CCOC1
  emission maximum: 626 nm
In CC(C)=O
  emission maximum: 658 nm
In CCCCCC
  emission maximum: 534 nm
In Cc1ccccc1
  emission maximum: 575 nm
In ClC(Cl)Cl
  emission maximum: 601 nm
In ClCCl
  emission maximum: 633 nm

## CCOC(=O)c1c(CSc2ccccc2)n(C)c2cc(Br)c(O)c(CN(C)C)c12
In O
  emission maximum: 350 nm

## C[n+]1ccc2c(ccc3c[n+](C)ccc32)c1
In CC#N
  emission maximum: 407 nm

## F[B-]1(F)n2ccnc2-c2cccc[n+]21
In C1CCCCC1
  emission maximum: 338 nm
In C1CCOC1
  emission maximum: 353 nm
In C1COCCO1
  emission maximum: 352 nm
In CC#N
  emission maximum: 359 nm
In CCCCCC
  emission maximum: 337 nm
In CO
  emission maximum: 362 nm
In ClC(Cl)Cl
  emission maximum: 356 nm

## CCCCN(CCCC)c1ccc(/C=C/c2ccc3c(c2)CCc2cc(/C=C/c4ccc(N(CCCC)CCCC)cc4)ccc2-3)cc1
In CS(C)=O
  emission maximum: 536.5 nm
In Cc1ccccc1
  emission maximum: 456.4 nm

## CC1(C)c2ccccc2N(c2ccccc2)c2ccc(S(=O)(=O)c3ccc4c(c3)C(C)(C)c3ccccc3N4c3ccccc3)cc21
In Cc1ccccc1
  emission maximum: 370.45 nm
[1]
  emission maximum: 381 nm

## C(=C(c1ccccc1)c1ccccc1)c1ccc(-c2ccc(C=C(c3ccccc3)c3ccccc3)cc2)cc1
In C1CCOC1
  emission maximum: 445 nm

## COc1ccc(C#Cc2c(C#Cc3ccc(OC)cc3)c(C#Cc3ccc(OC)cc3)c(C#Cc3ccc(OC)cc3)c(C#Cc3ccc(OC)cc3)c2C#Cc2ccc(OC)cc2)cc1
In ClCCl
  emission maximum: 466 nm

## O=c1[nH]c(=O)n([C@@H]2O[C@H](CO)[C@@H](O)[C@H]2O)c2ccsc12
In CC#N
  emission maximum: 344 nm
In CCOC(C)=O
  emission maximum: 345 nm
In CO
  emission maximum: 350 nm
In O
  emission maximum: 351 nm

## COc1ccc(-c2cccc3ncc(-c4ccc(C#N)cc4)n23)cc1
In ClCCl
  emission maximum: 447 nm

## COC(=O)/C(C#N)=c1\s/c(=c2/s/c(=C(/C#N)C(=O)OC)c3cc(-c4ccc5c(c4)C(C)(C)c4ccccc4-5)sc23)c2sc(-c3ccc4c(c3)C(C)(C)c3ccccc3-4)cc12
In Cc1ccccc1
  emission maximum: 682 nm

## CCC1(CC)c2cc(B(c3c(C)cc(C)cc3C)c3c(C)cc(C)cc3C)ccc2-c2c1c1c(c3c2C(CC)(CC)c2cc(B(c4c(C)cc(C)cc4C)c4c(C)cc(C)cc4C)ccc2-3)C(CC)(CC)c2cc(B(c3c(C)cc(C)cc3C)c3c(C)cc(C)cc3C)ccc2-1
In C1CCOC1
  emission maximum: 386 nm
In CC#N
  emission maximum: 403 nm
In CC(C)=O
  emission maximum: 396 nm
In CCCCCC
  emission maximum: 382 nm
In Cc1ccccc1
  emission maximum: 385 nm

## Cc1cc(C)c2c(c1)c1cc(C)cc(C)c1n2-c1ccc2c(c1)Sc1cc3c(cc1B2c1c(C(C)C)cc(C(C)C)cc1C(C)C)B(c1c(C(C)C)cc(C(C)C)cc1C(C)C)c1ccccc1S3
In Cc1ccccc1
  emission maximum: 465 nm
In O=P(c1ccccc1)(c1ccccc1)c1ccc2oc3ccc(P(=O)(c4ccccc4)c4ccccc4)cc3c2c1
  emission maximum: 483 nm

## COC(=O)c1c(NC(C)(C)C)oc(-c2ccc(-c3ccccc3)cc2)c1C(=O)OC
In CC#N
  emission maximum: 446 nm

## CCCCCCCCCCN1C(=O)c2cc(NCCCOCCO)c3c4c(cc(NCCCOCCO)c(c24)C1=O)C(=O)N(CCCCCCCCCC)C3=O
In CO
  emission maximum: 642 nm
In ClC(Cl)Cl
  emission maximum: 640 nm

## O=c1oc2cc(S(=O)(=O)O)c3ccccc3c2nc1-c1ccccc1
In CC#N
  emission maximum: 480 nm

## CCOC(=O)c1c(-c2cc3ccc(OCC=C(C)C)cc3oc2=O)nn(-c2ccccc2)c1C(=O)OCC
In ClCCl
  emission maximum: 425 nm

## c1cc2c3c(c1)-c1cccc4ccn(c14)B3n1ccc3cccc-2c31
In C1CCOC1
  emission maximum: 387 nm

## CCN1/C(=C\C2=C([O-])C(=C/C3=[N+](CC)c4ccccc4C3(C)C)/C2=O)C(C)(C)c2ccccc21
In ClC(Cl)Cl
  emission maximum: 643 nm

## [O-][n+]1c(/C=C/c2ccccc2)nc(N2CCOCC2)c2c1CCCC2
In ClCCl
  emission maximum: 535 nm

## COC(=O)/C=C/c1sc(-c2ccc(N(C)C)cc2)cc1N
In CC#N
  emission maximum: 609 nm

## C[C@]12SC(=O)C=C1c1nc(-c3ccc(O)cc3)[nH]c1C1=CC(=O)S[C@@]12C
In CC#N
  emission maximum: 536 nm

## CCCC1(CCC)c2cc(-c3ccc(C(C)(C)CC)cc3)ccc2-c2ccc(-c3ccc(C(C)(C)CC)cc3)cc21
In C1CCCCC1
  emission maximum: 368 nm

## C=Cc1cc2ccccc2oc1=O
In CC#N
  emission maximum: 413 nm

## c1ccc(-n2c3ccccc3c3cc([Si](c4ccccc4)(c4ccccc4)c4ccc5c(c4)c4ccccc4n5-c4ccccc4)ccc32)cc1
In ClCCl
  emission maximum: 350 nm
